Measured values published in patent publication US11013740B2, “Histone deacetylase 6 selective inhibitors for the treatment of cisplatin-induced peripheral neuropathy” (REGENACY PHARMACEUTICALS, LLC, priority 2015, dated 2021).

Experiments:
[1] = tested on: motor function; experiment: Rotarod test; assay type: in vivo, mice; details: in combination with cisplatin
Description: To quantify signs of cisplatin-induced pain, the von Frey test was used (see below) which measures the decrease in threshold to induce a withdrawal response to a mechanical stimulus (hyperalgesia, one of the characteristics of CIPN). To assess cisplatin-induced numbness, the adhesive removal test (ART) was used. The time it took for the mouse to have a behavioral response to the patch (i.e. shaking or attempted removal) was recorded as a measure of sensory deficit or numbness. To determine if behavioral changes were due to altered general activity or motor function, the locomotor activity (LMA) test and the rotarod test was used. For LMA mice were placed in an open-field testing cage and movement was measured for 5 minutes. For the rotarod, mice were trained for two days and then tested on the rotarod (with increasing speeds) for 5 minutes. Time on the rotarod was recorded.

[2] = tested on: acetylated α-tubulin; experiment: Western blot of acetylated α-tubulin in tibial nerves; assay type: in vivo; details: saline+compound and cisplatin+compound treated mice, 11 doses
Description: Tibial nerves retrieved from the XF24 assay plate were used for western blot analysis of levels of acetylated α-tubulin and mitochondrial proteins cytochrome c oxidase subunit IV (Cox IV), succinate dehydrogenase complex subunit A (SDHA) and voltage-dependent anion channel (VDAC). Tissues were homogenized in RIPA buffer (50 mM Tris-HCl, pH 7.5, 500 mM NaCl, 2.5 mM MgCl2, 1% NP-40, 10% glycerol) containing proteinase inhibitors by sonication and 10 μg of protein was separated by SDS/PAGE and transferred to PVDF membrane for immunoblot analyses. The membranes were blocked with 5% non-fat dry milk in PBST (phosphate-buffered saline containing 0.1% Tween 20) and probed with primary antibodies recognizing acetylated lysine (Rabbit monoclonal; Abcam, Cambridge, United Kingdom), α-tubulin (Rabbit polyclonal; Cell Signaling Technology, Danvers, Mass.), Cox IV (Mouse monoclonal; Life Technologies, Carlsbad, Calif.), SDHA (Rabbit polyclonal; Cell Signaling Technology, Danvers, Mass.) and VDAC (Rabbit polyclonal; Cell Signaling Technology, Danvers, Mass.) followed by HRP-conjugated anti-mouse, anti-rabbit, or anti-β-actin antibodies (Jackson Laboratory, Bar Harbor, Me.). […] The images were acquired using ImageQuant LAS 4000 (GE Healthcare Life Sciences, Little Chalfont, United Kingdom) and densitometrically analyzed using Image J software.

[3] = tested on: GFAP; experiment: GFAP immunofluorescence of lumbar spinal cord dorsal horn (astrocyte activation); assay type: in vivo, mice; details: two rounds of cisplatin, then 3 doses of 10 mg/kg
Description: For quantification of astrocyte and microglia activation, lumbar spinal cords were collected on day 22. This collection day was after completion of cisplatin treatment and 3 injections of compound 001. […] Spinal cords were processed and stained with antibodies specific for GFAP and Iba-1. Images were captured under blinded conditions from the lumbar dorsal horn using a Leica SPE confocal microscope (Leica Microsystems, Buffalo Grove, Ill.).
For assessing astrocyte activation, paraformaldehyde fixed frozen 6 μm sections of lumbar spinal cord (L1-L6) were incubated with an antibody against glial fibrillary acidic protein (GFAP) (Rabbit; Abcam, Cambridge, Mass.) followed by Alexa-594-goat anti-rabbit IgG (Life Technologies, Carlsbad, Calif.) as described (Zhang H, et al. Evidence that spinal astrocytes but not microglia contribute to the pathogenesis of Paclitaxel-induced painful neuropathy. J. Pain, 2012; 13(3):293-303). Images were captured using a Leica SPE confocal microscope (Leica Microsystems, Buffalo Grove, Ill.). GFAP staining intensity was quantified using Image J software for percent positive GFAP staining in which intensity thresholds were maintained between samples. All immunofluorescence analysis were done by an experimenter blinded to the treatment groups.

[4] = tested on: cisplatin-induced spontaneous pain; experiment: Conditioned place preference test for spontaneous pain; assay type: in vivo, mice; details: cisplatin followed by two weeks of daily compound
Description: Spontaneous pain was tested using a conditioning paradigm with retigabine as the conditioned stimulus that was originally described in a rat model (Yang Q, et al. Persistent pain after spinal cord injury is maintained by primary afferent activity. The Journal of Neuroscience. 2014; 34(32):10765-9; Ahmed B, et al. Recent changes in practice of elective percutaneous coronary intervention for stable angina. Circ. Cardiovasc. Qual. Outcomes. 2011; 4(3):300-5.). Retigabine is a […] with a rapid onset of action but only brief duration (45-60 min). […] Mol. Pain. 2010; 6(49); Passmore G M, et al. KCNQ/M currents in sensory neurons: significance for pain therapy. The Journal of Neuroscience, 2003; 23(18):7227-36). Briefly, during pre-conditioning, mice were allowed to freely explore for 15 min the CPP apparatus. The CPP apparatus consisted of 2 chambers (18×20 cm, one dark, one white) connected by a 15 cm hallway (Stoelting, Wood Dale, Ill.). The time spent in the light chamber was recorded. During the conditioning phase, saline was injected intraperitoneally in the morning and the mice were then kept in the dark chamber for 20 min. Three hours later, the analgesic retigabine (#R-100, Alomone laboratory, Jerusalem, Israel) […] the mice were immediately placed in the light chamber for 20 min. Conditioning was repeated for four consecutive days. […]

[5] = tested on: IENF density; experiment: Intra-epidermal nerve fiber (IENF) density in hind paw biopsies; assay type: in vivo, mice
Description: For quantification of IENFs, biopsies from the plantar surface of the hind paws were collected after 3 doses or 11 doses of compound 001 or vehicle and processed as described previously (Qi-Liang Mao-Ying A K, et al. The anti-diabetic drug metformin protects against chemotherapy-induced peripheral neuropathy in a mouse model. Clinical Cancer Research. 2014); Krukowski K, et al. Prevention of chemotherapy-induced peripheral neuropathy by the small-molecule inhibitor pifithrin-mu. Pain. 2015; 156(11):2184-92). In brief, biopsies were fixed in Zamboni's fixative, cryoprotected in 20% sucrose and then frozen in Optimal Cutting Temperature compound (Sakura Finetek USA, Inc., Torrance, Calif.). 25-μm frozen sections were incubated with antibodies against the pan neuronal marker PGP9.5 (Rabbit; AbD Serotec, Oxford, United Kingdom) and Collagen IV (Goat; Southern Biotech, Birmingham, Ala.) followed by Alexa-594 donkey anti-rabbit (Life Technologies, Carlsbad, Calif.) and Alexa-488 donkey anti-goat (Invitrogen, Grand Island, N.Y.). Three randomly chosen sections from each mouse were imaged and quantified under a Leica SPE confocal microscope (Leica Microsystems, Buffalo Grove, Ill.). Nerve fibers that crossed the collagen-stained dermal/epidermal junction into the epidermis were counted and IENF density was determined as the total number of fibers/length of epidermis (IENFs/mm).

O=C(NO)c1cnc(NC2(c3ccccc3)CCC(F)(F)CC2)nc1 [compound 001]
motor function (rotarod) [1]: no effect | α-tubulin acetylation in tibial nerves [2]: increased α-tubulin acetylation | GFAP expression in dorsal horn of spinal cord [3]: normalized GFAP expression to levels of saline-treated animals | change in time spent in retigabine-paired light chamber (spontaneous pain) [4]: did not develop a preference for the retigabine-paired light chamber | IENF density, prolonged regimen ([5]; 2 cycles of cisplatin and 11 doses of compound): completely reversed the cisplatin-induced loss of IENFs | IENF density, short-term treatment ([5]; cisplatin-treated mice, short-term treatment (3 doses)): did not have any effect on IENF density
